Reference: ChEMBL document CHEMBL5034023, “Development of Multifunctional and Orally Active Cyclic Peptide Agonists of Opioid/Neuropeptide FF Receptors that Produce Potent, Long-Lasting, and Peripherally Restricted Antinociception with Diminished Side Effects” (J Med Chem, 2021)
Active and inactive are the calls of the source. The rule behind the calls is not given here. Bridge positions count the residues as written; N and C are the ends. Square brackets hold non-standard residues; d marks the D form. Peptide text beside a SMILES is read from it. NMeF = CN[C@@H](Cc1ccccc1)C(=O)O; dOrn = NCCC[C@@H](N)C(=O)O; dDab = NCC[C@@H](N)C(=O)O

Legend:
[1] = molecular target: T1, Neuropeptide FF receptor 2 (Homo sapiens, UniProt Q9Y5X5); assay: (§1) Agonist activity at NPFF2R (unknown origin) expressed in HEK293-A cells assessed as inhibition of forskolin-induced cAMP accumulation by measuring maximal efficacy preincubated for 30 mins in presence of 3-isobutyl-1-methylxanthine followed by forskolin and compound addition by competitive PKA binding assay relative to control; format: functional, cell-based; conditions: filed as agonist
T1 sequence (Q9Y5X5 whole entry): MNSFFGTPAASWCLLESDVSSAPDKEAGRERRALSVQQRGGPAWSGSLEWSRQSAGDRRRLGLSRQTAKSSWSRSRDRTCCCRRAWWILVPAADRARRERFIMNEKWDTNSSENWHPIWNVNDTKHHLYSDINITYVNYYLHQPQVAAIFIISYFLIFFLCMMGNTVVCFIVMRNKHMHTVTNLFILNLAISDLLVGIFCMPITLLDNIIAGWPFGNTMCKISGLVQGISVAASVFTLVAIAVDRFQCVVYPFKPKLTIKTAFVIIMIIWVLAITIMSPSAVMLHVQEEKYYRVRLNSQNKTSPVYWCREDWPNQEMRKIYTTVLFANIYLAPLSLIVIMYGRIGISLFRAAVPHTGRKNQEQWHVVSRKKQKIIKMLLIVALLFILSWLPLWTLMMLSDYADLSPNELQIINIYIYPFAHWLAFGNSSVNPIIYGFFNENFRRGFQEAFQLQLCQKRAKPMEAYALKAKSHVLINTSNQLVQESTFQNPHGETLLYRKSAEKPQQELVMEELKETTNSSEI

[2] = molecular target: Kappa-type opioid receptor (Homo sapiens, UniProt P41145); format: functional, cell-based, HEK293-A
Kappa-type opioid receptor, sequence (P41145 whole entry): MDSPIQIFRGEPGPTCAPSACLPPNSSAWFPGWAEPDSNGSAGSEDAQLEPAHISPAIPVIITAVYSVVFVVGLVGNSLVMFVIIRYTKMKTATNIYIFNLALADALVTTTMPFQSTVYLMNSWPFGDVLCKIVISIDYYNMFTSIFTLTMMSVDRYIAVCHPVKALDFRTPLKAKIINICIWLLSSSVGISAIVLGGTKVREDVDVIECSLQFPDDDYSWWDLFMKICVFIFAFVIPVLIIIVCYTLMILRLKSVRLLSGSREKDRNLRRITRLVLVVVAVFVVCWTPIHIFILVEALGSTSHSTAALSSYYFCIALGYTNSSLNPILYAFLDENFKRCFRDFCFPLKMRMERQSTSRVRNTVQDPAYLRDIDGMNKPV

[3] = Metabolic stability in mouse plasma assessed as degradation half life at 0.01 M measured up to 360 mins; format: ADME, cell-free
[4] = molecular target: T2, Neuropeptide FF receptor 1 (Homo sapiens, UniProt Q9GZQ6); assay: Agonist activity at NPFF1R (unknown origin) expressed in HEK293-A cells assessed as inhibition of forskolin-induced cAMP accumulation preincubated for 30 mins in presence of 3-isobutyl-1-methylxanthine followed by forskolin and compound addition by competitive PKA binding assay; format: functional, cell-based
T2 sequence (Q9GZQ6 whole entry): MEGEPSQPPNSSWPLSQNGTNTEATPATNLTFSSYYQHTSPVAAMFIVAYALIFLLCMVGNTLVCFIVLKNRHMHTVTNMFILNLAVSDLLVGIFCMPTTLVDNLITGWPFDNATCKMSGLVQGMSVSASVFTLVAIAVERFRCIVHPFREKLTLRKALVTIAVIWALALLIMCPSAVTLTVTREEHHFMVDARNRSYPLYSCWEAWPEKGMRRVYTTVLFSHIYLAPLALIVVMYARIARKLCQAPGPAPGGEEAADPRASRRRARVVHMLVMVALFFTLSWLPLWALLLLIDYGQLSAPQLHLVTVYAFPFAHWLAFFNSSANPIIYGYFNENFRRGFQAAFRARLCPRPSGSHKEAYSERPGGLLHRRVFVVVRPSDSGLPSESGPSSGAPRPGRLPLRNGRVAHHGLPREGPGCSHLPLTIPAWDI

[5] = molecular target: T3, Delta-type opioid receptor (Homo sapiens, UniProt P41143); assay: (§2) Agonist activity at DOR (unknown origin) expressed in HEK293-A cells assessed as inhibition of forskolin-induced cAMP accumulation preincubated for 30 mins in presence of 3-isobutyl-1-methylxanthine followed by forskolin and compound addition by competitive PKA binding assay; format: functional, cell-based
T3 sequence (P41143 whole entry): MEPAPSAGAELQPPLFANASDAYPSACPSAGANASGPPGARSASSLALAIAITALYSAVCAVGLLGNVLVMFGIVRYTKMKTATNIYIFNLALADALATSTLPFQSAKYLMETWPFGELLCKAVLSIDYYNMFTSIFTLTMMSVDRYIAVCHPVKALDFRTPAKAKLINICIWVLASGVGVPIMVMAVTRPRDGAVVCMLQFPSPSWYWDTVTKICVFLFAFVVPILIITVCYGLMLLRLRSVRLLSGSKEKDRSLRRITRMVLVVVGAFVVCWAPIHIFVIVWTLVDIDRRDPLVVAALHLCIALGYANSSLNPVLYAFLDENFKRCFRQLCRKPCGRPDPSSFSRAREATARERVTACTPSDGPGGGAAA

Mus musculus [6] = assay: Antinociceptive activity against Kunming mouse model of thermal-induced nociception assessed as maximum possible effect at 87.9 nmol/kg, po measured after 30 min by tail flick test relative to control; format: functional; conditions: 0.5 h
[7] = molecular target: T2, Neuropeptide FF receptor 1; assay: as §1, with “NPFF1R” for “NPFF2R”; format: functional, cell-based; conditions: filed as agonist
Mus musculus [8] = assay: Antinociceptive activity against Kunming mouse model of thermal-induced nociception assessed as maximum possible effect at 87.9 nmol/kg, po measured after 60 min by tail flick test relative to control; format: functional; conditions: 1 h
Mus musculus [9] = assay: Antinociceptive activity against Kunming mouse model of thermal-induced nociception assessed as peripheral analgesia administered subcutaneously by tail-flick test; format: functional; conditions: sc
[10] = molecular target: T1, Neuropeptide FF receptor 2; assay: Agonist activity at NPFF2R (unknown origin) expressed in HEK293-A cells assessed as inhibition of forskolin-induced cAMP accumulation preincubated for 30 mins in presence of 3-isobutyl-1-methylxanthine followed by forskolin and compound addition by competitive PKA binding assay; format: functional, cell-based
Mus musculus [11] = assay: Antinociceptive activity in Kunming mouse assessed as analgesic tolerance administered subcutaneously once daily for 8 days by tail flick test; format: functional, organism-based; conditions: time 8.0 day
Mus musculus [12] = assay: Potency index, ratio of test compound ED50 to DN-9 ED50 for antinociceptive activity against Kunming mouse model of thermal-induced nociception assessed as peripheral analgesia administered subcutaneously by tail-flick test; format: functional
[13] = molecular target: T3, Delta-type opioid receptor; assay: Agonist activity at DOR (unknown origin) expressed in HEK293-A cells assessed as inhibition of forskolin-induced cAMP accumulation preincubated for 30 mins in presence of 3-isobutyl-1-methylxanthine followed by forskolin and compound addition by competitive PKA binding assay relative to control; format: functional, cell-based
Mus musculus [14] = assay: Antinociceptive activity against Kunming mouse model of thermal-induced nociception assessed as duration of analgesic effect administered subcutaneously by tail-flick test; format: functional
Mus musculus [15] = assay: Antinociceptive activity against Kunming mouse model of thermal-induced nociception assessed as maximum possible effect at 87.9 nmol/kg, po measured after 20 min by tail flick test relative to control; format: functional
Mu-type opioid receptor = Mu-type opioid receptor (Homo sapiens, UniProt P35372)
Mu-type opioid receptor, sequence (P35372 whole entry): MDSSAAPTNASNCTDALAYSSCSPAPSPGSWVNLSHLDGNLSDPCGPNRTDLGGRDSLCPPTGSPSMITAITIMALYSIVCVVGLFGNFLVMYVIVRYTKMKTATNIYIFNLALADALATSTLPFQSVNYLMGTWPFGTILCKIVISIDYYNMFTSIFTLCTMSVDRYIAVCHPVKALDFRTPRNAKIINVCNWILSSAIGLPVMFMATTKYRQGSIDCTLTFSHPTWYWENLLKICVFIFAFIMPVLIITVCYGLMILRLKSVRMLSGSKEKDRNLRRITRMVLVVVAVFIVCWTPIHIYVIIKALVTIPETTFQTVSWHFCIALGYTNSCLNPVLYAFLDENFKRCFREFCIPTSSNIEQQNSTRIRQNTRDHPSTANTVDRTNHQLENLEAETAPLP

Mus musculus [16] = assay: Antinociceptive activity against Kunming mouse model of thermal-induced nociception assessed as maximum possible effect at 37915 nmol/kg, po measured after 60 min by tail flick test relative to control; format: functional; conditions: 1 h
Mus musculus [17] = assay: Antinociceptive activity against Kunming mouse model of thermal-induced nociception assessed as prolongation of tail-flick latency period at 38 umol/kg, po measured up to 240 mins by tail-flick test; format: functional, organism-based; conditions: dose 38.0 µmol/kg, time min <=240
Mus musculus [18] = assay: Antinociceptive activity against Kunming mouse model of thermal-induced nociception assessed as maximum possible effect at 37915 nmol/kg, po measured after 30 min by tail flick test relative to control; format: functional; conditions: 0.5 h
Mus musculus [19] = assay: Antinociceptive activity against Kunming mouse model of thermal-induced nociception assessed as maximum possible effect at 37915 nmol/kg, po measured after 20 min by tail flick test relative to control; format: functional
[20] = molecular target: T3, Delta-type opioid receptor; assay: as §2, with “Potency index, ratio of DN-9 EC50 to test compound EC50 for agonist” for “Agonist”; format: functional, cell-based
Mus musculus [21] = assay: Antinociceptive activity against Kunming mouse model of thermal-induced nociception assessed as maximum possible effect at 86.8 nmol/kg, po measured after 60 min by tail flick test relative to control; format: functional; conditions: 1 h
Mus musculus [22] = assay: Antinociceptive activity against Kunming mouse model of thermal-induced nociception assessed as maximum possible effect at 86.8 nmol/kg, po measured after 30 min by tail flick test relative to control; format: functional; conditions: 0.5 h
Mus musculus [23] = assay: Antinociceptive activity against Kunming mouse model of thermal-induced nociception assessed as maximum possible effect at 86.8 nmol/kg, po measured after 20 min by tail flick test relative to control; format: functional
Mus musculus [24] = assay: Antinociceptive activity against Kunming mouse model of thermal-induced nociception assessed as maximum possible effect at 8681 nmol/kg, po measured after 20 min by tail flick test relative to control; format: functional
Mus musculus [25] = assay: Antinociceptive activity against Kunming mouse model of thermal-induced nociception assessed as maximum possible effect at 8681 nmol/kg, po measured after 60 min by tail flick test relative to control; format: functional; conditions: 1 h
Mus musculus [26] = assay: Antinociceptive activity against Kunming mouse model of thermal-induced nociception assessed as maximum possible effect at 8681 nmol/kg, po measured after 30 min by tail flick test relative to control; format: functional; conditions: 0.5 h
Mus musculus [27] = assay: Antinociceptive activity against Kunming mouse model of thermal-induced nociception assessed as maximum possible effect at 264201 nmol/kg, po measured after 30 min by tail flick test relative to control; format: functional; conditions: 0.5 h
Mus musculus [28] = assay: Antinociceptive activity against Kunming mouse model of thermal-induced nociception assessed as maximum possible effect at 264201 nmol/kg, po measured after 20 min by tail flick test relative to control; format: functional
Mus musculus [29] = assay: Antinociceptive activity against Kunming mouse model of thermal-induced nociception assessed as prolongation of tail-flick latency period at 264 umol/kg, po measured up to 240 mins by tail-flick test; format: functional, organism-based; conditions: dose 264.0 µmol/kg, time min <=240
Mus musculus [30] = assay: Antinociceptive activity against Kunming mouse model of thermal-induced nociception assessed as maximum possible effect at 264201 nmol/kg, po measured after 60 min by tail flick test relative to control; format: functional; conditions: 1 h
Mus musculus [31] = assay: Antinociceptive activity against Kunming mouse model of thermal-induced nociception assessed as maximum possible effect at 89 nmol/kg, po measured after 20 min by tail flick test relative to control; format: functional
Mus musculus [32] = assay: Antinociceptive activity against Kunming mouse model of thermal-induced nociception assessed as maximum possible effect at 89 nmol/kg, po measured after 60 min by tail flick test relative to control; format: functional; conditions: 1 h
Mus musculus [33] = assay: Antinociceptive activity against Kunming mouse model of thermal-induced nociception assessed as maximum possible effect at 89 nmol/kg, po measured after 30 min by tail flick test relative to control; format: functional; conditions: 0.5 h

| SMILES | Emax [1] [%] | EC50 [2] [nM] | half-life at 10000 µM [3] [min] | EC50 [4] [nM] | EC50 [5] [nM] | Emax [7] [%] | ED50 (Mus musculus [9]) [µmol/kg] | EC50 ([10]; read-out: EC50) [nM] | Activity (Mus musculus [11]) | Ratio ED50 (Mus musculus [12]) | Emax ([13]; filed as agonist) [%] | Tlast (Mus musculus [14]) [min] | EC50 (Mu-type opioid receptor) [nM] | MPE (Mus musculus [24]) [%] | MPE (Mus musculus [25]) [%] | MPE (Mus musculus [26]) [%] | other results |
| --- | --- | --- | --- | --- | --- | --- | --- | --- | --- | --- | --- | --- | --- | --- | --- | --- | --- |
| CN1C(=O)CNC(=O)[C@H](NC(=O)[C@@H](N)Cc2ccc(O)cc2)CCCNC(=O)C[C@@H](C(=O)N2CCC[C@H]2C(=O)N[C@@H](CCC(N)=O)C(=O)N[C@@H](CCCNC(=N)N)C(=O)N[C@@H](Cc2ccccc2)C(N)=O)NC(=O)[C@@H]1Cc1ccccc1 (H-Y[dOrn]G[NMeF]DPQRF-NH2; lactam 2-5) | 52.8 | 139 | 41.1 | 439 | 659 | 72.4 | 0.0132 | 133 | inactive | 16.4 | 51.9 | 240 | 168 |  |  |  | MPE (Mus musculus [6]): 96%; MPE (Mus musculus [8]): 70.7%; MPE (Mus musculus [15]): 80.8% |
| C[C@@H](NC(=O)[C@@H](N)Cc1ccc(O)cc1)C(=O)NCC(=O)N(C)[C@@H](Cc1ccccc1)C(=O)NCC(=O)N1CCC[C@H]1C(=O)N[C@@H](CCC(N)=O)C(=O)N[C@@H](CCCNC(=N)N)C(=O)N[C@@H](Cc1ccccc1)C(N)=O (H-Y[dA]G[NMeF]GPQRF-NH2) |  |  | 21.8 |  |  |  | 0.216 |  | inactive | 1 |  | 90 |  |  |  |  | MPE (Mus musculus [16]): 22.8%; Activity (Mus musculus [17]): Active; MPE (Mus musculus [18]): 63.1%; MPE (Mus musculus [19]): 75.6% |
| CN1C(=O)CNC(=O)[C@H](NC(=O)[C@@H](N)Cc2ccc(O)cc2)CC(=O)NCCCC[C@@H](C(=O)N2CCC[C@H]2C(=O)N[C@@H](CCC(N)=O)C(=O)N[C@@H](CCCNC(=N)N)C(=O)N[C@@H](Cc2ccccc2)C(N)=O)NC(=O)[C@@H]1Cc1ccccc1 (H-Y[dD]G[NMeF]KPQRF-NH2; lactam 2-5) | 71.8 | 81.3 | 10.8 | 222 | 74.2 | 77.6 | 0.0137 | 303 | inactive | 15.7 | 56 | 240 | 66.3 |  |  |  | Ratio EC50 [20]: 7; MPE (Mus musculus [21]): 80.5%; MPE (Mus musculus [22]): 95.6%; EC50 ([10]; read-out: pEC50 (converted)): 309 nM; MPE (Mus musculus [23]): 88.7% |
| CN1C(=O)CNC(=O)[C@@H](NC(=O)[C@@H](N)Cc2ccc(O)cc2)CCCCNC(=O)C[C@@H](C(=O)N2CCC[C@H]2C(=O)N[C@@H](CCC(N)=O)C(=O)N[C@@H](CCCNC(=N)N)C(=O)N[C@@H](Cc2ccccc2)C(N)=O)NC(=O)[C@@H]1Cc1ccccc1 (H-YKG[NMeF]DPQRF-NH2; lactam 2-5) | 68.1 | 320 | 9.9 | 28.9 | 28.2 | 80.6 | 0.022 | 112 | inactive |  | 65.7 | 240 | 72.6 | 93.9 | 76.3 | 93.2 |  |
| CN1CC[C@]23c4c5ccc(O)c4O[C@H]2[C@@H](O)C=C[C@H]3[C@H]1C5 [MORPHINE] |  |  |  |  |  |  |  |  |  |  |  |  |  |  |  |  | MPE (Mus musculus [27]): 87.6%; MPE (Mus musculus [28]): 75.3%; Activity (Mus musculus [29]): Active; MPE (Mus musculus [30]): 63% |
| CN1C(=O)CNC(=O)[C@@H](NC(=O)[C@@H](N)Cc2ccc(O)cc2)CCCCNC(=O)C[C@H](C(=O)N2CCC[C@H]2C(=O)N[C@@H](CCC(N)=O)C(=O)N[C@@H](CCCNC(=N)N)C(=O)N[C@@H](Cc2ccccc2)C(N)=O)NC(=O)[C@@H]1Cc1ccccc1 (H-YKG[NMeF][dD]PQRF-NH2; lactam 2-5) | 62.4 |  | 6.7 | 104 | 923 | 76.2 | 0.0263 | 81.5 | inactive |  | 62.2 | 240 | 167 | 94.1 | 70.6 | 82.5 |  |
| CN1C(=O)CNC(=O)[C@H](NC(=O)[C@@H](N)Cc2ccc(O)cc2)CCCCNC(=O)C[C@H](C(=O)N2CCC[C@H]2C(=O)N[C@@H](CCC(N)=O)C(=O)N[C@@H](CCCNC(=N)N)C(=O)N[C@@H](Cc2ccccc2)C(N)=O)NC(=O)[C@@H]1Cc1ccccc1 (H-Y[dK]G[NMeF][dD]PQRF-NH2; lactam 2-5) | 59 |  | 18.7 | 528 | 581 | 75.6 | 0.0201 | 190 | inactive |  | 60.3 | 240 | 586 | 92.6 | 74.1 | 94.1 |  |
| CN1C(=O)CNC(=O)[C@H](NC(=O)[C@@H](N)Cc2ccc(O)cc2)CCNC(=O)C[C@@H](C(=O)N2CCC[C@H]2C(=O)N[C@@H](CCC(N)=O)C(=O)N[C@@H](CCCNC(=N)N)C(=O)N[C@@H](Cc2ccccc2)C(N)=O)NC(=O)[C@@H]1Cc1ccccc1 (H-Y[dDab]G[NMeF]DPQRF-NH2; lactam 2-5) | 63.2 | 71.2 | 530 | 180 | 95.1 | 73.4 | 0.0142 | 265 | inactive | 15.2 |  | 240 | 37.9 |  |  |  | MPE (Mus musculus [31]): 80.8%; MPE (Mus musculus [32]): 74%; Emax [13]: 31.2%; MPE (Mus musculus [33]): 93.8% |
